Results as given in patent US5464826A, “Method of treating tumors in mammals with 2',2'-difluoronucleosides” (Eli Lilly and Company, priority 1994, dated 1995).

Columns and labels:
[1] = tested on: 6C3HED, CA755, P1534J, X5563; test: additional tumor test systems (summary statement); assay type: in vivo, mice; conditions: systems include 6C3HED
Source text: These systems include the 6C3HED lymphosarcoma, also known as the Gardner lymphosarcoma (6C3HED); the CA-755 adenocarcinoma (CA755); the P1534J lymphatic leukemia (P1534J); and the X5563 plasma cell myeloma (X5563). Each of these systems is described in detail below.
The tumor was removed from passage animals and minced into 1 to 3 mm square fragments using sterile techniques. Tumor pieces were checked for sterility using both Antibiotic Medium 1 and Brain Heart Infusion (Difco; Detroit, Mich.). Recipient mice were shaved and tumor pieces were implanted subcutaneously in the axillary region by trocar. Drug therapy on the appropriate schedule was initiated on the day after tumor implant. The compound was dissolved in saline for all experiments. All animals were weighed at the beginning and end of drug treatment. Food and water were provided ad libitum. On days 10 to 12, two dimensional measurements (width and length) of all tumors were taken using vernier calipers. Tumor weights were calculated from these measurements using the following formula: […]

[2] = tested on: X5563 plasma cell myeloma; test: X5563 plasma cell myeloma tumor model; assay type: in vivo, mice (C3H); conditions: IP, Days 1,5,9
Source text: X5563 Myeloma--the tumor is maintained in C3H mice.
(§1) The tumor was removed from passage animals and minced into 1 to 3 mm square fragments using sterile techniques. Tumor pieces were checked for sterility using both Antibiotic Medium 1 and Brain Heart Infusion (Difco; Detroit, Mich.). Recipient mice were shaved and tumor pieces were implanted subcutaneously in the axillary region by trocar. Drug therapy on the appropriate schedule was initiated on the day after tumor implant. The compound was dissolved in saline for all experiments. All animals were weighed at the beginning and end of drug treatment. Food and water were provided ad libitum. On days 10 to 12, two dimensional measurements (width and length) of all tumors were taken using vernier calipers. Tumor weights were calculated from these measurements using the following formula:
(§2) Tumor Weight (mg)=Tumor Length (mm)×Tumor Width (mm)^2 /2
(§3) For all data, the tumor weight was rounded to the nearest tenth of a gram for analysis. No group is included in the analysis for therapeutic activity in which deaths attributable to drug toxicity exceeded 30 percent of the treated group.
(§4) In Table 3 which follows, column 1 gives the example number of the compound tested; column 2 provides the tumor system; column 3, the dose level; column 4, the route administered; column 5, the dosage schedule; column 6, the percent inhibition of the tumor; and column 7, the toxic deaths observed prior to completion of the study.

CA755 adenocarcinoma = CA755 adenocarcinoma tumor model; assay type: in vivo, mice (C57BL/6); conditions: IP, Days 1,5,9
Source text: CA755--The adenocarcinoma 755 is an undifferentiated mammary carcinoma which was obtained in 1980 from the Division of Cancer Treatment, N.C.I., tumor bank maintained at E.G. and G. Mason Research (Worchester, Mass.). First passage tumor was stored in liquid nitrogen using standard techniques. The transplanted tumor was re-established from the tumor bank every six months or as needed. The tumor is maintained by serial passage once a week in C57BL/6 female mice (Jackson Laboratory; Bar Harbor, Me.).
as §1, §2, §3, §4

SMILES: Nc1ccn(C2O[C@H](CO)[C@@H](O)C2(F)F)c(=O)n1 (stereo partly drawn) [Example 1, 1-(4-Amino-2-oxo-1H-pyrimidin-1-yl)-2-desoxy-2,2-difluororibose]
- activity in additional tumor test systems (in words) [1]: demonstrated activity in additional tumor test systems
- Percent Inhibition of Tumor ([2]; 1.25 mg/kg): 11%
- Toxic Deaths ([2]; 1.25 mg/kg): 1/10
- Percent Inhibition of Tumor ([2]; 2.5 mg/kg): 52%
- Toxic Deaths ([2]; 2.5 mg/kg): 1/10
- Percent Inhibition of Tumor ([2]; 5.0 mg/kg): 89%
- Toxic Deaths ([2]; 5.0 mg/kg): 0/10
- Percent Inhibition of Tumor ([2]; 10.0 mg/kg): 98%
- Toxic Deaths ([2]; 10.0 mg/kg): 0/10
- Percent Inhibition of Tumor ([2]; 20.0 mg/kg): 100%
- Toxic Deaths ([2]; 20.0 mg/kg): 0/10
- Percent Inhibition of Tumor (CA755 adenocarcinoma; 1.25 mg/kg): 0%
- Toxic Deaths (CA755 adenocarcinoma; 1.25 mg/kg): 0/10
- Percent Inhibition of Tumor (CA755 adenocarcinoma; 2.5 mg/kg): 44%
- Toxic Deaths (CA755 adenocarcinoma; 2.5 mg/kg): 0/10
- Percent Inhibition of Tumor (CA755 adenocarcinoma; 5.0 mg/kg): 85%
- Toxic Deaths (CA755 adenocarcinoma; 5.0 mg/kg): 0/10
- Percent Inhibition of Tumor (CA755 adenocarcinoma; 10.0 mg/kg): 86%
- Toxic Deaths (CA755 adenocarcinoma; 10.0 mg/kg): 0/10
- Percent Inhibition of Tumor (CA755 adenocarcinoma; 20.0 mg/kg): 94%
- Toxic Deaths (CA755 adenocarcinoma; 20.0 mg/kg): 0/10
